pIC50: −log10 of the molar value.
Tests used:
AKT2 = target: T1, AKT2 (Homo sapiens, UniProt P31751); assay: Live cell target engagement by NanoBRET competitive probe displacement, AKT2; type: binding; conditions: transfected HEK293 cells, 2 h at 37° C., read-out: AKT2 IC50: GeoMean IC50
T1 construct: expressed in transfected cells; host or cells: HEK293

[1] = test system: LAPC4 prostate cancer cells, which express the AKT1 E17K allele; assay: Antiproliferative effects in LAPC4 cells (CellTiter Glo, 72 h); type: cell-based; conditions: Homo sapiens, LAPC4, 72 h, read-out: LAPC4 proliferation IC50: GeoMean IC50
Procedure, shortened: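 Cells grown in IMDM with 12% FBS, seeded at 1,000 cells/well and treated with compound dilutions in DMSO for 72 h. Intracellular ATP read by luminescence. IC50 from a log(inhibitor) vs. response Hill fit.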

AKT1 E17K = target: T2, AKT1 E17K (Homo sapiens, UniProt P31749, E17K); assay: Live cell target engagement by NanoBRET competitive probe displacement, AKT1 E17K; type: binding; conditions: transfected HEK293 cells, 2 h at 37° C., read-out: AKT1 E17K IC50: GeoMean IC50
T2 construct: expressed in transfected cells; host or cells: HEK293
T2 sequence (P31749 whole entry E17K): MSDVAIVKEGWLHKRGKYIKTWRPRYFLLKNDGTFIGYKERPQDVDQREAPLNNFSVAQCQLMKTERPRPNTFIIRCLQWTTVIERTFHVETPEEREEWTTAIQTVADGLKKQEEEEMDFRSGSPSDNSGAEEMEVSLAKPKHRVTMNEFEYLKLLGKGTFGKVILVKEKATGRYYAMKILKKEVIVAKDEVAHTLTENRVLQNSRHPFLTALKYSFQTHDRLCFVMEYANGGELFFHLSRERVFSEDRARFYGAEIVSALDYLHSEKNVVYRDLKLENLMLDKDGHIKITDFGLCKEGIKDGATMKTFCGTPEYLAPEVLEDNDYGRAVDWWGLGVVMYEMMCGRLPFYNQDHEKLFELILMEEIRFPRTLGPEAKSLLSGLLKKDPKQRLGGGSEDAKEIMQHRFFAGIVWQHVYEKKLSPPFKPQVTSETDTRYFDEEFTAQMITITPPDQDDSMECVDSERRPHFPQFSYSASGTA

AKT1 WT = target: T3, AKT1 WT (Homo sapiens, UniProt P31749); assay: Live cell target engagement by NanoBRET competitive probe displacement, AKT1 WT; type: binding; conditions: transfected HEK293 cells, 2 h at 37° C., read-out: AKT1 WT IC50: GeoMean IC50
T3 construct: expressed in transfected cells; host or cells: HEK293
T3 sequence (P31749 whole entry): as the sequence (P31749 whole entry E17K) above, with K17E counted along it

T1 sequence (P31751 whole entry): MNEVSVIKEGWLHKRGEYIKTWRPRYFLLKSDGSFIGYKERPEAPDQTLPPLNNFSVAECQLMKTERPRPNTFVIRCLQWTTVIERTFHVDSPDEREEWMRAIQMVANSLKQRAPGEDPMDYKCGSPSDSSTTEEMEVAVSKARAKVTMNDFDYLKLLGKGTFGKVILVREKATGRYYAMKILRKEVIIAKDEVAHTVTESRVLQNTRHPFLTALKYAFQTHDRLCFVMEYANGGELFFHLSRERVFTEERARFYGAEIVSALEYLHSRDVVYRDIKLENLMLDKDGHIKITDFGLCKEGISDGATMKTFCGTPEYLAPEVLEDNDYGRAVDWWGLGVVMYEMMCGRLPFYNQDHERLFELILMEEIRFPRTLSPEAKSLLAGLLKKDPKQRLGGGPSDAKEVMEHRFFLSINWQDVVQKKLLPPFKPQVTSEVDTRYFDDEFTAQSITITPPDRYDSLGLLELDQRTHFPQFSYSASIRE

SMILES	pIC50 (AKT2)	pIC50 [1]	pIC50 (AKT1 E17K)	pIC50 (AKT1 WT)
Nc1ncccc1-c1nc2ccc(Cl)nc2n1-c1ccc2c(c1)CC[C@@H]2NC(=O)c1ccc(O)c(C=O)c1 [Example 136, N-[(1S)-5-[2-(2-aminopyridin-3-yl)-5-chloroimidazo[4,5-b]pyridin-3-yl]-2,3-dihydro-1H-inden-1-yl]-3-formyl-4-hydroxybenzamide]	≤ 5.70	5.70 to 7.00	7.00 to 8.00	5.70 to 7.00
C#Cc1ccn(-c2ccc3nc(-c4cccnc4N)n(-c4ccc5c(c4)CC[C@@H]5NC(=O)c4ccc(O)c(C=O)c4)c3n2)n1 [Example 119, N-[(1S)-5-[2-(2-aminopyridin-3-yl)-5-(3-ethynylpyrazol-1-yl)imidazo[4,5-b]pyridin-3-yl]-2,3-dihydro-1H-inden-1-yl]-3-formyl-4-hydroxybenzamide]	5.70 to 7.00	7.00 to 8.00	> 8.00	7.00 to 8.00
Nc1ncccc1-c1nc2ccc(-c3ccccc3)nc2n1-c1ccc2c(c1)CC[C@@H]2Nc1nccc2c(C=O)c(O)ccc12 [Example 39, 1-{[(1S)-5-[2-(2-aminopyridin-3-yl)-5-phenylimidazo[4,5-b]pyridin-3-yl]-2,3-dihydro-1H-inden-1-yl]amino}-6-hydroxyisoquinoline-5-carbaldehyde]	5.70 to 7.00	5.70 to 7.00	5.70 to 7.00	5.70 to 7.00
Nc1ncccc1-c1nc2ccc(-n3cc(CO)cn3)nc2n1-c1ccc2c(c1)CC[C@@H]2NC(=O)c1cc(C=O)c(O)cc1F [Example 138, (S)—N-(5-(2-(2-aminopyridin-3-yl)-5-(4-(hydroxymethyl)-1H-pyrazol-1-yl)-3H-imidazo[4,5-b]pyridin-3-yl)-2,3-dihydro-1H-inden-1-yl)-2-fluoro-5-formyl-4-hydroxybenzamide]	5.70 to 7.00	7.00 to 8.00	7.00 to 8.00	5.70 to 7.00
COc1cc2nc(-c3cccnc3N)n(-c3ccc4c(c3)CC[C@@H]4NC(=O)c3ccc(O)c(C=O)c3)c2nc1-n1cccn1 [Example 215, N-[(1S)-5-[2-(2-aminopyridin-3-yl)-6-methoxy-5-(pyrazol-1-yl)imidazo[4,5-b]pyridin-3-yl]-2,3-dihydro-1H-inden-1-yl]-3-formyl-4-hydroxybenzamide]	5.70 to 7.00	5.70 to 7.00	7.00 to 8.00	5.70 to 7.00
Cc1cc2nc(-c3cccnc3N)n(-c3ccc4c(c3)CC[C@@H]4NC(=O)c3ccc(O)c(C=O)c3)c2nc1-n1cccn1 [Example 229, (S)—N-(5-(2-(2-aminopyridin-3-yl)-6-methyl-5-(1H-pyrazol-1-yl)-3H-imidazo[4,5-b]pyridin-3-yl)-2,3-dihydro-1H-inden-1-yl)-3-formyl-4-hydroxybenzamide]	5.70 to 7.00	5.70 to 7.00	7.00 to 8.00	5.70 to 7.00
Nc1ncccc1-c1nc2ccc(-n3cccn3)nc2n1-c1ccc2c(c1)CC[C@@H]2NC(=O)c1cc(C=O)c(O)c(C(F)(F)F)c1 [Example 100, N-[(1S)-5-[2-(2-aminopyridin-3-yl)-5-(pyrazol-1-yl)imidazo[4,5-b]pyridin-3-yl]-2,3-dihydro-1H-inden-1-yl]-3-formyl-4-hydroxy-5-(trifluoromethyl)benzamide]	5.70 to 7.00	5.70 to 7.00	7.00 to 8.00	5.70 to 7.00
Cc1ccc(-c2nc3ccc(-n4cccn4)nc3n2-c2ccc3c(c2)CC[C@@H]3NC(=O)c2ccc(O)c(C=O)c2)c(N)n1 [Example 166, (S)—N-(5-(2-(2-amino-6-methylpyridin-3-yl)-5-(1H-pyrazol-1-yl)-3H-imidazo[4,5-b]pyridin-3-yl)-2,3-dihydro-1H-inden-1-yl)-3-formyl-4-hydroxybenzamide]	≤ 5.70	≤ 5.70	≤ 5.70	≤ 5.70
N#Cc1ccc2nc(-c3cccnc3N)n(-c3ccc4c(c3)CC[C@@H]4NC(=O)c3ccc(O)c(C=O)c3)c2n1 [Example 79, (S)—N-(5-(2-(2-aminopyridin-3-yl)-5-cyano-3H-imidazo[4,5-b]pyridin-3-yl)-2,3-dihydro-1H-inden-1-yl)-3-formyl-4-hydroxybenzamide]	≤ 5.70	≤ 5.70	5.70 to 7.00	5.70 to 7.00
Nc1ncccc1-c1nc2ccc(-c3cnccn3)nc2n1-c1ccc2c(c1)CC[C@@H]2NC(=O)c1cc(C=O)c(O)c(F)c1F [Example 103, N-[(1S)-5-[2-(2-aminopyridin-3-yl)-5-(pyrazin-2-yl)imidazo[4,5-b]pyridin-3-yl]-2,3-dihydro-1H-inden-1-yl]-2,3-difluoro-5-formyl-4-hydroxybenzamide]	5.70 to 7.00	7.00 to 8.00	7.00 to 8.00	7.00 to 8.00
Nc1ncccc1-c1nc2c(-n3cccn3)cc(-n3cccn3)nc2n1-c1ccc2c(c1)CC[C@@H]2NC(=O)c1ccc(O)c(C=O)c1 [Example 198, N-[(1S)-5-[2-(2-aminopyridin-3-yl)-5,7-bis(pyrazol-1-yl)imidazo[4,5-b]pyridin-3-yl]-2,3-dihydro-1H-inden-1-yl]-3-formyl-4-hydroxybenzamide]	5.70 to 7.00	5.70 to 7.00	7.00 to 8.00	7.00 to 8.00
[N-]=[N+]=Nc1cc(O)c(C=O)cc1C(=O)N[C@H]1CCc2cc(-n3c(-c4cccnc4N)nc4ccc(-n5cccn5)nc43)ccc21 [Example 235, N-[(1S)-5-[2-(2-aminopyridin-3-yl)-5-(pyrazol-1-yl)imidazo[4,5-b]pyridin-3-yl]-2,3-dihydro-1H-inden-1-yl]-2-azido-5-formyl-4-hydroxybenzamide]	5.70 to 7.00	5.70 to 7.00	7.00 to 8.00	5.70 to 7.00
[N-]=[N+]=Nc1c(C(=O)N[C@H]2CCc3cc(-n4c(-c5cccnc5N)nc5ccc(-n6cccn6)nc54)ccc32)cc(C=O)c(O)c1F [Example 218, (S)—N-(5-(2-(2-aminopyridin-3-yl)-5-(1H-pyrazol-1-yl)-3H-imidazo[4,5-b]pyridin-3-yl)-2,3-dihydro-1H-inden-1-yl)-2-azido-3-fluoro-5-formyl-4-hydroxybenzamide]	5.70 to 7.00	5.70 to 7.00	5.70 to 7.00	5.70 to 7.00

Next, values leading:

pIC50 (AKT2)	pIC50 [1]	pIC50 (AKT1 E17K)	pIC50 (AKT1 WT)	SMILES
5.70 to 7.00	7.00 to 8.00	> 8.00	7.00 to 8.00	Nc1ncccc1-c1nc2ccc(-c3ncco3)nc2n1-c1ccc2c(c1)CC[C@@H]2NC(=O)c1cc(C=O)c(O)cc1F [Example 151, N-[(1S)-5-[2-(2-aminopyridin-3-yl)-5-(1,3-oxazol-2-yl)imidazo[4,5-b]pyridin-3-yl]-2,3-dihydro-1H-inden-1-yl]-2-fluoro-5-formyl-4-hydroxybenzamide]
7.00 to 8.00	7.00 to 8.00	7.00 to 8.00	7.00 to 8.00	Cc1cc(-n2cccn2)nc2c1nc(-c1cccnc1N)n2-c1ccc2c(c1)CC[C@@H]2NC(=O)c1cc(C=O)c(O)c(F)c1F [Example 153, (S)—N-(5-(2-(2-aminopyridin-3-yl)-7-methyl-5-(1H-pyrazol-1-yl)-3H-imidazo[4,5-b]pyridin-3-yl)-2,3-dihydro-1H-inden-1-yl)-2,3-difluoro-5-formyl-4-hydroxybenzamide]
5.70 to 7.00	7.00 to 8.00	7.00 to 8.00	7.00 to 8.00	Nc1ncccc1-c1nc2ccc(-n3nccn3)nc2n1-c1ccc2c(c1)CC[C@@H]2NC(=O)c1ccc(O)c(C=O)c1 [Example 91, N-[(1S)-5-[2-(2-aminopyridin-3-yl)-5-(1,2,3-triazol-2-yl)imidazo[4,5-b]pyridin-3-yl]-2,3-dihydro-1H-inden-1-yl]-3-formyl-4-hydroxybenzamide]
5.70 to 7.00	5.70 to 7.00	7.00 to 8.00	7.00 to 8.00	Nc1ncccc1-c1nc2ccc(-n3cc4c(n3)COC4)nc2n1-c1ccc2c(c1)CC[C@@H]2NC(=O)c1ccc(O)c(C=O)c1 [Example 207, N-[(1S)-5-[2-(2-aminopyridin-3-yl)-5-{4H,6H-furo[3,4-c]pyrazol-2-yl}imidazo[4,5-b]pyridin-3-yl]-2,3-dihydro-1H-inden-1-yl]-3-formyl-4-hydroxybenzamide]
5.70 to 7.00	5.70 to 7.00	7.00 to 8.00	7.00 to 8.00	Nc1ncccc1-c1nc2ccc(-c3ccccc3)nc2n1-c1ccc2c(c1)CC[C@@H]2NC(=O)c1ccc(C=O)c(O)c1F [Example 31, N-[(1S)-5-[2-(2-aminopyridin-3-yl)-5-phenylimidazo[4,5-b]pyridin-3-yl]-2,3-dihydro-1H-inden-1-yl]-2-fluoro-4-formyl-3-hydroxybenzamide]
7.00 to 8.00	7.00 to 8.00	7.00 to 8.00	7.00 to 8.00	Nc1ncccc1-c1nc2ccc(-c3ccccc3)nc2n1-c1ccc2c(c1)CC[C@@H]2NC(=O)c1ccc(O)c(C=O)c1 [Example 5, (S)—N-(5-(2-(2-aminopyridin-3-yl)-5-phenyl-3H-imidazo[4,5-b]pyridin-3-yl)-2,3-dihydro-1H-inden-1-yl)-3-formyl-4-hydroxybenzamide]
7.00 to 8.00	7.00 to 8.00	> 8.00	7.00 to 8.00	Nc1ncccc1-c1nc2ccc(-n3cccn3)nc2n1-c1ccc2c(c1)CC(F)[C@@H]2NC(=O)c1cc(C=O)c(O)cc1F (single isomer, unassigned) [Example 258, N-((1R,2R*)-5-(2-(2-aminopyridin-3-yl)-5-(1H-pyrazol-1-yl)-3H-imidazo[4,5-b]pyridin-3-yl)-2-fluoro-2,3-dihydro-1H-inden-1-yl)-2-fluoro-5-formyl-4-hydroxybenzamide]

From US20260053834A1, “COVALENT MODIFIERS OF AKT1 AND USES THEREOF” (Terremoto Biosciences, Inc., priority 2023, published 2026)
